Experimental data published in patent US20150367034A1, “CREATION OF THREE-DIMENSIONAL SYNTHETIC TISSUE FROM PLURIPOTENT STEM CELL-DERIVED CELLS, AND OSTEOCHONDRAL REGENERATION TREATMENT USING SAID SYNTHETIC TISSUE” (OSAKA UNIVERSITY, priority 2013, published 2015).

Columns and labels:
ES-MSCs = assay: Volume, weight and hydroxyproline of TEC from ES-MSCs with or without ascorbic acid 2-phosphate; assay type: cell-based, rabbit; conditions: 0.2 mM added versus non-added; FIG. 3
Description: The protocol thereof is disclosed below.
ES-MSCs were inoculated at a TEC creation concentration (1.52×10^5 cells/well) in each well of a 12 well plate to create a TEC. A medium was created by separating conventional 10% FBS-containing DMEM for TEC creation into a 0.2 mM ascorbic acid added group (n=6) and non-added group (n=6). Three of each group were used for weight/volume measurements and the rest of the three were used in hydroxyproline measurements. For hydroxyproline, the following kit was used (Hydroxyproline Assay Kit Cat#K555-100; Lot#60855, BioVision), where the measurements were taken in accordance with the protocol on the package insert.
For the TEC made from 0.125×10^6, 0.25×10^6, 0.5×10^6, 1×10^6, 2×10^6, 4×10^6, 8×10^6, or 16×10^6 cells/well in a 6 well plate which was cultured over 12 days, detached, and allowed to undergo self-contraction, the volume was measured with a plethysmometer (model TK-101CMP; UNICOM, Chiba, Japan), and the weight was measured with a scale (Ando W, Tateishi K, Katakai D, Hart D A, Higuchi C, Nakata K, et al., Tissue Eng Part A 2008:14:2041-2049). 4 samples were evaluated at each cell density. In short, a plethysmometer is a minute volume controlled measuring device that is specially designed for accurate measurement. A plethysmometer consists of Perspex cells filled with water. A transducer records a small difference in the water level caused by a change in volume. […] The weight was measured with a common scale (METTLER TOLEDO AG204, Mettler-Toledo International Inc., Max210gd=0.1 mg, METTLER TOLEDO AG204 (Mettler-Toledo International Inc.)) in a laboratory […]. Measurements were taken in accordance with the protocol on the package insert.

Synovial cells = assay: Extracellular matrix formation and collagen content (hydroxyproline) of synovial cell synthetic tissue; assay type: cell-based; conditions: pig synovial cells
Description: Synovial cells were collected from a knee joint of a pig (LWD ternary hybrid, 2-3 months old upon removal of cells), followed by treatment with collagenase. The cells were cultured and subcultured in a 10% fetal bovine serum+High Glucose-DMEM medium (fetal bovine serum available from HyClone, DMEM was obtained from GIBCO). It has been reported that 10th passage synovial cells still have pluripotency. Although cells of 10 or less passages were used in this production example, it is understood that cells of more than 10 passages may be used depending on the application. Autotransplantation was performed for actual human implantation, but it was necessary to secure a sufficient number of cells and to culture the cells for a short period of time so as to reduce the risk of infection or the like. Synovial cells (4.0×10^5) were cultured in 0.1-0.2 ml/cm^2 of 10% FBS-DMEM medium in a 35-mm dish, 60-mm dish, 100-mm dish, 150-mm dish, 500-m dish, 6-well culture dish, 12-well culture dish, or 24-well culture dish (BD Biosciences, cell culture dish and multiwell cell culture plate). In this case, ascorbic acid was added. […] In order to determine the collagen concentration, the collagen content was measured. […]

With O=C1O[C@H]([C@@H](O)CO)C(O)=C1OP(=O)(O)O [ascorbic acid 2-phosphate] the “hydroxyproline generation amount of TEC” value (ES-MSCs) was “significantly increased”, the “volume of TEC” value (ES-MSCs) was “significantly increased” and the “weight of TEC” value (ES-MSCs) was “significantly increased”. For the same compound, the “production of collagen (amount of hydroxyproline)” value (Synovial cells; 0.1 mM or more added) was “significantly promoted” and the “formation of an extracellular matrix” value (Synovial cells; added at a concentration of 0.1 mM or more) was “promoted”.
